The nature of data set [1]: in vivo. The arrangement: species or system mice. The note with it: BALB/c, mouse, iv, 0.1 mg/kg body weight, total radioactivity. Here is the method: Biodistribution studies were also performed on tumor bearing BALB/c mice. 0.1 mg/Kg body weight ^68Ga-DT(GSHMe)2 (~25 ± 1.5 MBq) was injected through tail vein and at different time points viz., 30 min, 1 and 2 h animals were sacrificed and organs were dissected out. Uptake of radioactivity in individual organ is noted and %ID/g is then calculated.

For data set [2], the system named is athymic mice bearing BMG-1 tumors. The experiment in a line: Micro PET/CT small animal imaging with ROI analysis. It is filed as in vivo. The note with it: blocking dose ~5 mg/Kg native GSH, PET 2 h post injection, BMG-1 tumor. Here is the method:
Athymic male mice were xenografted with BMG-1 human tumor cell line (0.1 mL of cell suspension containing ~5 ×10^6 BMG cells) in the flank region of the hind limb. BALB/c mice were inoculated with EAT murine tumor cells (5–6 × 10^6) in the flank region of the right hind limb. An inflammation lesion was induced in the fore limb by intramuscular injection of turpentine oil (100 μL) 48 h before imaging. For Scintigraphy, (n = 6) mice used for imaging, biodistribution studies (n = 32 mice) for two experiments 4 mice/group for 4 time points and blood kinetics (n = 18).
Xenografted experimental models were intravenously administered 0.1mg/Kg body weight ^68Ga-DT(GSHMe)2 (37 ± 2.2 MBq) and 0.25 mg/Kg Body weight ^99mTc-DT(GSHMe)2 (29.6 ± 1.8 MBq) via tail vein for PET and SPECT respectively. Blocking dose of ~ 5 mg/Kg body weight of GSH was administered intravenously in the experimental animal. The acquisition was performed 2 h post injection. The ratios were calculated from counts per pixel of individual ROI (Region of interest) for semi-quantitative analysis to understand the distribution and localization.

Data set [3] has as its system cell lines. The experiment in a line: MTT assay (cytotoxicity). The format is cell-based. Here is the method:
To confirm the results from SRB assay, MTT assay which measures cell metabolic activity was performed to correlate the results obtained using SRB assay. Exponentially growing cells were plated in a 96 well microtitre plate at a cell density of 4000 cells per well 24 h before treatment. Cells were treated with varying concentrations of the drug for different time intervals (24, 48, and 72 h). At the end of treatment, both the treated cells and untreated control were incubated with MTT at final concentration of 0.1mg/mL for 3 h at 37°C and the medium was removed thereafter. Cells from each treatment were lysed and the formazan crystals were dissolved using 150 μL of DMSO for 30 min. Optical density of extracts at 570 nm was measured (reference filter: 630 nm). Surviving fraction was determined and was plotted against concentration as a function of time.

Data set [4] relates to cell lines. The experiment in a line: Sulfo rhodamine B (SRB) assay (cytotoxicity). It is filed as cell-based. Here is the method:
SRB assay was performed to estimate the cytotoxicity of DT(GSHMe)2. SRB binds to total protein content of the cells and is independent of metabolic activity. Cells were seeded at the density of 6000 cells per well in 96 well microtiter plate. Cells were treated with varying concentration of DT(GSHMe)2 from 0.001 μM-1000 μM for different time intervals (24, 48 and 72 h). At each time point, 100 μL of ice cold 10% (wt/vol) trichloroacetic acid (TCA) was added to each well and were incubated for 1 h at 4°C followed by washing the plate four times under running tap water. Plates were then air dried and 100 μL of 0.057% SRB solution was added in each well for 30 min. Plates were quickly rinsed four times with 1% (v/v) acetic acid and air dried. To develop color, 200 μL of 10 mM Tris base solution (pH 10.5) was added to each well and kept on gyratory shaker for 5 min. The color intensity was measured fluorometrically at excitation 488 nm and emission at 585 nm. Surviving fraction was calculated and plotted for the concentration range 0.001 μM-1000 μM as a function of time.

In data set [5] the test system is BMG-1 cells. The experiment in a line: Cell cycle analysis by flow cytometry (PI). It is filed as cell-based, human. Here is the method: 10^5 cells per well were plated in a Petri dishes and kept in the incubator overnight at 37°C. Following day, cells were treated with different drug concentrations (0.01 μM –1000 μM). At specific time points, media was carefully removed and cells were harvested in micro centrifuge tubes. Cells were centrifuged at 1200 rpm for 6 min. Supernatant was removed and 700 μL of 80% cold ethanol was added drop wise. Pellet was uniformly dispersed and samples were stored at 4°C for at least 24 h. Samples were centrifuged to remove supernatant and RNAse at a final concentration of 0.5 mg/mL was added to the pellet and incubated at 37°C for 1 h. Finally Propidium Iodide (PI) solution at a final concentration of 10μg/mL was added and the samples were analyzed by flow cytometry.

Data set [6] can be described thus: In vivo total glutathione estimation from tumor, RBC and plasma. The arrangement: species or system BALB/c mice bearing EA tumors. The note with it: n = 3. Here is the method:
Levels of total Glutathione (GSH/GSSG) were estimated from tumor, RBC and plasma isolated from BALB/c mice bearing EA tumors, after injection of unlabeled 100 μM DT(GSHMe)2 (100 μL). At time points (15 min, 30 min, 1, 2and 4 h), blood samples were withdrawn and tumors were excised. Tumors were homogenized in 3 volumes of 5% sulfosalicylic acid (SSA) and centrifuged at 10,000 x g for 10 min at 4°C. Blood was centrifuged and the plasma fraction was separated from RBC pellet. To each RBC and plasma fractions, equal volume of 5% SSA was added, followed by vortexing and centrifugation at 10,000 x g for 10 min at 4°C. Supernatant was collected and used for estimating total glutathione levels.

The nature of data set [7]: Log P calculation (octanol/PBS partition). The format is physicochemical. The note with it: shake-flask 1-octanol/PBS pH 7.4, equal volumes, vortexed 10 min, centrifuged 5000 rpm 5 min, gamma counter, repeated thrice; read-out: Log P. How it is done:
The value of partition coefficient of radiolabeled […] calculated and expressed as log P. The radiolabeled […] passed through 0.22 μ filter and approximately 10.2 ± 1.5 MBq of labeled compound was diluted in PBS, pH 7.4. To this equal volume of 1-octanol was added. The mixture was thoroughly vortexed for 10 min and then centrifuged at 5000 rpm for 5 min. […] The measurement was repeated thrice. The partition coefficient (P) was calculated using the following equation wherein, P = (counts in octanol fraction) / (counts in PBS fraction). For each value of P, log P value is calculated.

Setting [8] is: 0.25 h after injection of 100 μM unlabeled compound.

By IC50 is commonly meant the concentration needed to halve the response being measured.

On to `CCOC(=O)CNC(=O)[C@H](CS)NC(=O)CC[C@H](NC(=O)CN(CCN(CCN(CC(=O)O)CC(=O)N[C@@H](CCC(=O)N[C@@H](CS)C(=O)NCC(=O)OCC)C(=O)O)CC(=O)O)CC(=O)O)C(=O)O` [68Ga-DT(GSHMe)2, metal not drawn], for which, in data set [1], the tissue to tissue ratio at 2 h was found to be 26.4. The “block of uptake at tumor site by GSH” value in data set [2] is 95.57%.

For the molecule `CCOC(=O)CNC(=O)[C@H](CS)NC(=O)CC[C@H](NC(=O)CN(CCN(CCN(CC(=O)O)CC(=O)N[C@@H](CCC(=O)N[C@@H](CS)C(=O)NCC(=O)OCC)C(=O)O)CC(=O)O)CC(=O)O)C(=O)O` [DT(GSHMe)2, Diethylene triaminpentaacetic acid bis glutathione monoethylester], the “toxicity on cell lines” value in data set [3] (100 μM concentration, in vitro evaluations on cell lines) is reported as “minimal toxicity”. Moreover, the “toxicity” value is “nontoxic” in data set [3] (MTT, lower concentration (below 100 μM), 24-72 h) and “nontoxic” in data set [4] (lower concentration (below 100 μM)). Further, the “cell population remained viable” value in data set [4] (1000 μM, 72 h) is on record as 11.57 ± 3.84%. The IC50 in data set [4] (cell line not stated, read-out: IC50 (nearly 50% cell lysis)) is ~500 µM. Further, the G1 cell population in data set [5] (BMG-1, 1 μM, 24 h) was found to be 83.2 ± 4.16%; in data set [5] (BMG-1, 1000 μM, 24 h), 49.5 ± 2.47%. The “increase of apoptotic cells versus control” value in data set [5] (BMG-1, 1000 μM, 24 h) is recorded as “approximately 14 folds”. The apoptotic cells in data set [5] (BMG-1, 1000 μM, 24 h treatment) is 23.4 ± 1.17%. Besides, the Plasma total glutathione is 0.13 ± 0.029 μmoles of GSH/ml in data set [6] (setting [8]); 0.16 ± 0.028 μmoles of GSH/ml in data set [6] (0.5 h after injection); 0.28 ± 0.127 μmoles of GSH/ml in data set [6] (1 h after injection); 0.32 ± 0.155 μmoles of GSH/ml in data set [6] (2 h after injection); 0.23 ± 0.041 μmoles of GSH/ml in data set [6] (4 h after injection). The RBC total glutathione is 0.38 ± 0.021 μmoles of GSH/ml in data set [6] (setting [8]); 0.39 ± 0.026 μmoles of GSH/ml in data set [6] (0.5 h after injection); 0.45 ± 0.010 μmoles of GSH/ml in data set [6] (1 h after injection); 0.5 ± 0.11 μmoles of GSH/ml in data set [6] (2 h after injection); 0.39 ± 0.001 μmoles of GSH/ml in data set [6] (4 h after injection). Also, the Tumor total glutathione is 3 ± 0.007 μmoles of GSH/g tissue weight in data set [6] (setting [8]); 4.3 ± 0.019 μmoles of GSH/g tissue weight in data set [6] (0.5 h after injection); 4.5 ± 0.070 μmoles of GSH/g tissue weight in data set [6] (1 h after injection); 4.9 ± 0.010 μmoles of GSH/g tissue weight in data set [6] (2 h after injection); 4.1 ± 0.010 μmoles of GSH/g tissue weight in data set [6] (4 h after injection).

Turning to `N[C@@H](CCC(=O)N[C@@H](CS)C(=O)NCC(=O)O)C(=O)O` [glutathione, Glutathione, reference compound], the logD in data set [7] was -3.23 ± 0.141.

The values above are taken from article PMC4519333, “Preclinical Evaluation of a Potential GSH Ester Based PET/SPECT Imaging Probe DT(GSHMe)2 to Detect Gamma Glutamyl Transferase Over Expressing Tumors” (PLoS ONE, 2015).
